Data taken from patent publication US10441627B2, “Method of treating prader-willi syndrome” (Ferring B.V., priority 2014, dated 2019).

Tests used:
[1] = system: subjects with Prader-Willi Syndrome (PWS); assay: Double-blind, placebo-controlled clinical trial of carbetocin intranasal spray in subjects with PWS; type: in vivo, human; details: for Clinical Global Impression, Least-Squares Mean Change Carbetocin vs. Placebo: CGI-I 7-point clinician rating; for HPWSQ-R-C Behavior domain score, Least-Squares Mean Change Carbetocin vs. Placebo / HPWSQ-R-C Drive domain score, Least-Squares Mean Change Carbetocin vs. Placebo / HPWSQ-R-C Severity domain score, Least-Squares Mean Change Carbetocin vs. Placebo / HPWSQ-R-C total score, Least-Squares Mean Change Carbetocin vs. Placebo: clinician rated; for HPWSQ-R total score, Least-Squares Mean Change Carbetocin vs. Placebo / HPWSQ-R Behavior domain score, Least-Squares Mean Change Carbetocin vs. Placebo / HPWSQ-R Drive domain score, Least-Squares Mean Change Carbetocin vs. Placebo / HPWSQ-R Severity domain score, Least-Squares Mean Change Carbetocin vs. Placebo: parent/caregiver rated; for HPWSQ-R total score, Least-Squares Mean Change Carbetocin vs. Placebo: negative = improvement vs placebo
Procedure: A prospective, double-blind, placebo-controlled, parallel trial in subjects with PWS between 10 and 18 years of age with genetically confirmed diagnosis of PWS and a documented nutritional Phase 3 based on the criteria described in Miller et al, 2011 (Am J Med Genet A, 155A(5):1040-1049) was performed. The trial included a Screening Period, a 14-day Treatment Period, and a Follow-Up Period. Subjects, along with their parent/caregiver, were required to visit the investigational site 4 times over the course of the trial and participate in 2 phone call assessments. The trial schedule is listed below. • Visit 1: Screening Period (Day −7 to Day 0) • Visit 2: Baseline 1st day dosing on site (Day 1) • Visit 3: 2nd day dosing on site (Day 2) • Phone call assessment (Day 8±1) • Visit 4: End-of-Treatment Visit (Day 15) • Follow-up phone call (Day 19±3)
Following appropriate informed consent procedures, subjects underwent screening evaluations to determine eligibility before randomization. After randomization, efficacy measures and other assessments, including physical examination, vital signs, and collection of blood samples for clinical laboratory and pharmacokinetic evaluation, were performed at selected visits. Subjects were closely monitored for adverse events throughout the trial.
Prior to first dosing at the investigational site, parents/caregivers were trained on the proper use of the nasal spray device and procedures for investigational medicinal product (IMP) home delivery. Parents/caregivers were instructed to administer 3 intranasal spray pumps of blinded IMP per nostril 3 times daily before meals within the following intervals:
38 subjects, 10-18 years of age, with genetically confirmed diagnosis of PWS and documented nutritional phase 3 PWS criteria (based on Miller et al, 2011), were randomized. 36 subjects completed the study.
The carbetocin intranasal spray was prepared by dissolving […] in 0.9% sterile sodium chloride solution. Specifically, the preweighed carbetocin powder was reconstituted with the sodium chloride solution and subsequently transferred to a nasal spray device. Each spray pump actuation delivered a 50 μL volume of solution containing 1.6 mg carbetocin. Each dose consisted of 3 spray pump actuations in each nostril to deliver a total of 9.6 mg carbetocin. The daily dose of carbetocin was 28.8 mg.
The primary endpoint measured in this trial was change in the total score from Visit 2 to Visit 4 in Hyperphagia in Prader-Willi Syndrome Questionnaire-Responsiveness (HPWSQ-R), which was completed by the parent/caregiver.
1. Clinical Global Impression-Improvement (CGI-I) after treatment at Visit 4.
2. Change from Visit 2 to Visit 4 for the following measurements: • HPWSQ-R hyperphagia behavior, drive, and severity domain scores. • Hyperphagia in Prader-Willi Syndrome Questionnaire-Responsiveness—completed by the clinician (HPWSQ-R-C) total score. • HPWSQ-R-C hyperphagia behavior, drive, and severity domain scores.
3. Change from Visit 1 to Visit 4 for the following measurements: • Children's Yale-Brown Obsessive Compulsive Scale (CY-BOCS) score. • Food Domain of the Reiss Profile.
The primary endpoint was analyzed using an analysis of covariance model with treatment and site as fixed effects and HPWSQ-R total score at Visit 2 (baseline) as a covariate. The last observation carried forward method was used to carry forward non-missing values of HPWSQ-R total score during the phone call assessment (Day 8±1) to impute missing values of HPWSQ-R total score at Visit 4. The treatment group difference in total score between placebo and carbetocin was calculated by subtracting the mean change from baseline in placebo from that in the carbetocin group. A borderline statistically significant difference at the 10% significant level was achieved if the upper limit of the 90% 1-sided confidence interval for the treatment difference was less than zero. […]

[2] = system: human oxytocin (hOT) receptor vs human V2 (hV2) receptor; details: ratio of EC50 values; from Table 2 in WO2009/122285; cited from earlier work

Molecule: carbetocin
- Clinical Global Impression, Least-Squares Mean Change Carbetocin vs. Placebo ([1]; Day 8, intranasal 28.8 mg/day): −0.9/0.0162
- HPWSQ-R-C Behavior domain score, Least-Squares Mean Change Carbetocin vs. Placebo ([1]; Day 8, intranasal 28.8 mg/day): −5.4/0.0017
- HPWSQ-R-C Drive domain score, Least-Squares Mean Change Carbetocin vs. Placebo ([1]; Day 8, intranasal 28.8 mg/day): −3.4/0.0019
- HPWSQ-R-C Severity domain score, Least-Squares Mean Change Carbetocin vs. Placebo ([1]; Day 8, intranasal 28.8 mg/day): −1.7/0.0061
- HPWSQ-R-C total score, Least-Squares Mean Change Carbetocin vs. Placebo ([1]; Day 8, intranasal 28.8 mg/day): −10.2/0.0017
- CY-BOCS, Least-Squares Mean Change Carbetocin vs. Placebo ([1]; Day 8, intranasal 28.8 mg/day): −2.7/0.0956
- Food Domain Score of Reiss Profile, Least-Squares Mean Change Carbetocin vs. Placebo ([1]; Day 8, intranasal 28.8 mg/day): −3.0/0.0184
- HPWSQ-R total score, Least-Squares Mean Change Carbetocin vs. Placebo ([1]; Day 8, intranasal 9.6 mg three times daily (28.8 mg/day)): −5.2/0.0632
- HPWSQ-R Behavior domain score, Least-Squares Mean Change Carbetocin vs. Placebo ([1]; Day 8, intranasal 28.8 mg/day): −1.9/0.1153
- HPWSQ-R Drive domain score, Least-Squares Mean Change Carbetocin vs. Placebo ([1]; Day 8, intranasal 28.8 mg/day): −2.1/0.0625
- HPWSQ-R Severity domain score, Least-Squares Mean Change Carbetocin vs. Placebo ([1]; Day 8, intranasal 28.8 mg/day): −1.1/0.0572
- Clinical Global Impression, Least-Squares Mean Change Carbetocin vs. Placebo ([1]; Day 15, intranasal 28.8 mg/day): −0.8/0.0233
- HPWSQ-R-C Behavior domain score, Least-Squares Mean Change Carbetocin vs. Placebo ([1]; Day 15, intranasal 28.8 mg/day): −4.3/0.0068
- HPWSQ-R-C Drive domain score, Least-Squares Mean Change Carbetocin vs. Placebo ([1]; Day 15, intranasal 28.8 mg/day): −2.6/0.0340
- HPWSQ-R-C Severity domain score, Least-Squares Mean Change Carbetocin vs. Placebo ([1]; Day 15, intranasal 28.8 mg/day): −2.2/0.0014
- HPWSQ-R-C total score, Least-Squares Mean Change Carbetocin vs. Placebo ([1]; Day 15, intranasal 28.8 mg/day): −10.5/0.0014
- CY-BOCS, Least-Squares Mean Change Carbetocin vs. Placebo ([1]; Day 15, intranasal 28.8 mg/day): −6.2/0.0047
- Food Domain Score of Reiss Profile, Least-Squares Mean Change Carbetocin vs. Placebo ([1]; Day 15, intranasal 28.8 mg/day): −4.4/0.0132
- HPWSQ-R Behavior domain score, Least-Squares Mean Change Carbetocin vs. Placebo ([1]; Day 15, intranasal 28.8 mg/day): −2.0/0.1172
- HPWSQ-R Drive domain score, Least-Squares Mean Change Carbetocin vs. Placebo ([1]; Day 15, intranasal 28.8 mg/day): −1.6/0.1436
- HPWSQ-R Severity domain score, Least-Squares Mean Change Carbetocin vs. Placebo ([1]; Day 15, intranasal 28.8 mg/day): −1.5/0.0248
- HPWSQ-R total score, Least-Squares Mean Change Carbetocin vs. Placebo ([1]; Day 15, intranasal 28.8 mg/day): −6.7/0.0290
- Improvement over placebo treated patients in HPWSQ-R, HPWSQ-R-C, CGI, CY-BOCS and Food Domain Score of Reiss Profile ([1]; Day 15 results, P<0.05): statistically significant improvement
- hV2/hOT selectivity ratio (EC50 hV2/EC50 hOT) [2]: 244

Molecule: CC[C@H](C)[C@@H]1NC(=O)[C@H](Cc2ccc(O)cc2)NC(=O)[C@@H](N)CSSC[C@@H](C(=O)N2CCC[C@H]2C(=O)N[C@@H](CC(C)C)C(=O)NCC(N)=O)NC(=O)[C@H](CC(N)=O)NC(=O)[C@H](CCC(N)=O)NC1=O [Oxytocin]
- hV2/hOT selectivity ratio (EC50 hV2/EC50 hOT) [2]: 3
